Biological target: human GPR40 receptor (Homo sapiens, UniProt O14842)
Assay: Assay II: IP1 accumulation (IPOne HTRF) in 1321N1 cells stably expressing human GPR40
Format: cell-based
Details: 1321N1 cells expressing human GPR40, stimulation 1 h at 37° C., 5% CO2, LiCl 50 mM
Method: IP1 accumulation measurements using the IPOne assay system—1321N1 cells stably expressing human GPR40 receptor (Euroscreen, Belgium) are seeded 24 h before the assay in white 384-well plates in culture medium containing 10% FCS, 1% Na-Pyruvate and 400 μg/mL G418. IP1 is assayed according to the manufacturers description (Cisbio Bioassays, France). In brief, the assay is started by substitution of the culture medium by stimulation buffer (Hepes 10 mM, CaCl2 1 mM, MgCl2 0.5 mM, KCl 4.2 mM, NaCl 146 mM, glucose 5.5 mM and LiCl 50 mM, pH 7.4). Cells are stimulated for 1 h at 37° C., 5% CO2 by addition of the compounds that are diluted in stimulation buffer containing LiCl. Assays are stopped by adding HTRF-conjugates (IP1-d2 and Anti-IP1 cryptate Tb) and lysis buffer, provided by the manufacturer. After an incubation time of 1 h at room temperature plates are measured using an EnVision™, Perkin Elmer. The obtained fluorescence ratios at 665/615 nM are then used to calculate the pEC50 values using Assay Explorer 3.3 Software (Accelrys, Inc.) by interpolation using an IP1 reference curve and subsequent sigmoidal curve fitting allowing for a variable hill slope.

Sequence of human GPR40 receptor (O14842 whole entry): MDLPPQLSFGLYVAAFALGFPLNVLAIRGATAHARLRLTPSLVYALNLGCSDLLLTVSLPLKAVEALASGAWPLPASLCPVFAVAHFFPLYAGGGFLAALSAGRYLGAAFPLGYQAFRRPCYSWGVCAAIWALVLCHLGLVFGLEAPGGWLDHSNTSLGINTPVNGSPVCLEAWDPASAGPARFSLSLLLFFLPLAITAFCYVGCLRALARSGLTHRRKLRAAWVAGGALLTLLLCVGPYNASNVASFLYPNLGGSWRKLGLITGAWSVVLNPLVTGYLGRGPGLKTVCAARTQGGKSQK

| Structure (SMILES) | EC50 [nM] |
| --- | --- |
| Cc1cc(-c2nnn(C(C)(C)CO)n2)cc(C)c1-c1ccc(F)c2c1CC[C@H]2Oc1ccc2c(c1)OC[C@H]2CC(=O)O [Example 99, 2-((S)-6-((R)-7-Fluoro-4-(4-(2-(1-hydroxy-2-methylpropan-2-yl)-2H-tetrazol-5-yl)-2,6-dimethylphenyl)-2,3-dihydro-1H-inden-1-yloxy)-2,3-dihydrobenzofuran-3-yl)acetic acid] | 4 |
| CC(C)(C)COc1ncccc1-c1ccc(F)c2c1CC[C@H]2Oc1ccc2c(c1)OC[C@H]2CC(=O)O [Example 100] | 58 |
| Cc1cc(-c2ccc(=O)n(C)n2)cc(C)c1-c1ccc(F)c2c1CC[C@H]2Oc1ccc2c(c1)OC[C@H]2CC(=O)O [Example 101, 2-((S)-6-((R)-4-(2,6-Dimethyl-4-(1-methyl-6-oxo-1,6-dihydropyridazin-3-yl)phenyl)-7-fluoro-2,3-dihydro-1H-inden-1-yloxy)-2,3-dihydrobenzofuran-3-yl)acetic acid] | 3 |
| CN(C)C(=O)c1ccccc1-c1ccc(F)c2c1CC[C@H]2Oc1ccc2c(c1)OC[C@H]2CC(=O)O [Example 102, 2-((3S)-6-((1R)-4-(2-(Dimethylcarbamoyl)phenyl)-7-fluoro-2,3-dihydro-1H-inden-1-yloxy)-2,3-dihydrobenzofuran-3-yl)acetic acid] | 2240 |
| Cn1nnnc1-c1c(F)cccc1-c1ccc(F)c2c1CC[C@H]2Oc1ccc2c(c1)OC[C@H]2CC(=O)O [Example 103, 2-((3S)-6-((1R)-7-Fluoro-4-(3-fluoro-2-(1-methyl-1H-tetrazol-5-yl)phenyl)-2,3-dihydro-1H-inden-1-yloxy)-2,3-dihydrobenzofuran-3-yl)acetic acid] | 1430 |
| Cc1cc(-c2ccncc2)cc(C)c1-c1ccc(F)c2c1CC[C@H]2Oc1ccc2c(c1)OC[C@H]2CC(=O)O [Example 104, {(S)-6-[(R)-4-(2,6-Dimethyl-4-pyridin-4-yl-phenyl)-7-fluoro-indan-1-yloxy]-2,3-dihydro-benzofuran-3-yl}-acetic acid] | 7 |
| O=C(O)C[C@@H]1COc2cc(O[C@@H]3CCc4c(-c5cccnc5-c5ccoc5)ccc(F)c43)ccc21 [Example 105, {(S)-6-[(R)-7-Fluoro-4-(2-furan-3-yl-pyridin-3-yl)-indan-1-yloxy]-2,3-dihydro-benzofuran-3-yl}-acetic acid] | 582 |
| O=C(O)C[C@@H]1COc2cc(O[C@@H]3CCc4c(-c5cccnc5-c5ccccc5)ccc(F)c43)ccc21 [Example 106, {(S)-6-[(R)-7-Fluoro-4-(2-phenyl-pyridin-3-yl)-indan-1-yloxy]-2,3-dihydro-benzofuran-3-yl}-acetic acid] | 59 |
| Cc1cc(-c2cc(C)c(-c3ccc(F)c4c3CC[C@H]4Oc3ccc4c(c3)OC[C@H]4CC(=O)O)c(C)c2)ccn1 [Example 107, {(S)-6-[(R)-4-(2,6-Dimethyl-4-(2-methyl-pyridin-4-yl)-phenyl)-7-fluoro-indan-1-yloxy]-2,3-dihydro-benzofuran-3-yl}-acetic acid] | 4 |
| Cc1nn(C)c(C)c1-c1ncccc1-c1ccc(F)c2c1CC[C@H]2Oc1ccc2c(c1)OC[C@H]2CC(=O)O [Example 108, {(S)-6-[(R)-7-Fluoro-4-[2-(1,3,5-trimethyl-pyrazol-4-yl)-pyridin-3-yl]-indan-1-yloxy]-2,3-dihydro-benzofuran-3-yl}-acetic acid] | > 10000 |
| Cc1cc(-c2c(C)nn(C)c2C)cc(C)c1-c1ccc(F)c2c1CC[C@H]2Oc1ccc2c(c1)OC[C@H]2CC(=O)O [Example 109, {(S)-6-[(R)-4-(2,6-Dimethyl-4-(1,3,5-trimethyl-pyrazol-4-yl)-phenyl)-7-fluoro-indan-1-yloxy]-2,3-dihydro-benzofuran-3-yl}-acetic acid] | 8 |
| O=C(O)C[C@@H]1COc2cc(O[C@@H]3CCc4c(-c5cccnc5C5CCOCC5)ccc(F)c43)ccc21 [Example 110, {(S)-6-[(R)-7-Fluoro-4-(2-tetrahydropyran-4-yl-pyridin-3-yl)-indan-1-yloxy]-2,3-dihydro-benzofuran-3-yl}-acetic acid] | 351 |

— patent US8642585B2, “Indanyloxydihydrobenzofuranylacetic acids” (Boehringer Ingelheim International GmbH, priority 2012, dated 2014)
